Test [1] deals with T1, Nluc-H1R (Homo sapiens, UniProt P35367). Description: NanoBRET saturation binding assay on Nluc-H1R expressing HEK293T cells. Further details: expressed in transfected cells. Conditions: saturation binding curves, whole HEK293T cells; for pKD: non-specific with 10 μM mepyramine, mean ± SEM. The source says:
Total and non-specific saturation binding curves from NanoBRET saturation binding assay were fitted simultaneously using eq 1: [drawing 4] 1 where Bmax is the maximal specific binding, [B] is the concentration of fluorescent ligand in nM, KD is the equilibrium dissociation constant in nM, M is the slope of the non-specific component, and C is the intercept with the Y axis.
On the technique in general: Bioluminescence resonance energy transfer reports proximity on the nanometre scale.

Test [2] concerns the target T1, Nluc-H1R. Put plainly: NanoBRET competition binding assay (displacement of 1) on Nluc-H1R expressing HEK293T cells. Conditions: displacement of 1 (25 nM, KD = 8 nM), whole HEK293T cells, Cheng–Prusoff; for pKi: mean ± SEM, three experiments.

Square brackets hold non-standard residues; d marks the D form. Side chains are listed from the residue outwards. Peptide text beside a SMILES is read from it. * marks the point of attachment. Propanoyl(3-Pip(4-O-2-BnPh)) = O=C(CCN1CCC(Oc2ccccc2Cc2ccccc2)CC1)*; BODIPY(FL) = CC1=CC(C)=[N+]2C1=Cc1ccc(CCC(=O)*)n1[B-]2(F)F; Ahx = NCCCCCC(=O)O; βAla = NCCC(=O)O

T1 sequence (P35367 whole entry): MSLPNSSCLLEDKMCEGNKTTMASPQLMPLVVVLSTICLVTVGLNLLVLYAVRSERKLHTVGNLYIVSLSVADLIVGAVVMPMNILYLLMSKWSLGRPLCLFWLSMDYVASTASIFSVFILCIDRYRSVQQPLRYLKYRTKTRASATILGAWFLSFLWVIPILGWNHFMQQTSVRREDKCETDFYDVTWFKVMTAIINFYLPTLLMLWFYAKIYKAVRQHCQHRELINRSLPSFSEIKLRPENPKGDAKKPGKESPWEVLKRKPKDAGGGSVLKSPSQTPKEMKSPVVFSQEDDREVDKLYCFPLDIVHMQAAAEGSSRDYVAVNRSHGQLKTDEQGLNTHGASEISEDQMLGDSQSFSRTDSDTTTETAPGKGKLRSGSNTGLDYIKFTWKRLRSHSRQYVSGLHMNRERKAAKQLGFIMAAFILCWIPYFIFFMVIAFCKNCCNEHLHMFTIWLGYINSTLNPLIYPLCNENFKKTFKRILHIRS

Broadly, the Kd is the constant that tells how readily two partners part at equilibrium. Higher therefore signals lower affinity. What is called pKD is the negative decadic logarithm of the KD, by convention in mol/L. Low readings indicate a large KD, high ones a small KD. In test [1], `Cc1cc(C)n2c1C=C1C=CC(CCC(=O)NCCCCCC(=O)NCCCC[C@H](NC(=O)CCNC(=O)[C@H](CC(N)=O)NC(=O)[C@H](CO)NC(=O)[C@@H](NC(=O)CCN3CCC(Oc4ccccc4Cc4ccccc4)CC3)C(C)C)C(N)=O)=[N+]1[B-]2(F)F` [Compound 38e, (S)-N^1-(3-(((S)-1-Amino-6-(6-(3-(5,5-difluoro-7,9-dimethyl-5H-4λ^4,5λ^4-dipyrrolo[1,2-c:2’,1’-f][1,3,2]diazaborinin-3-yl)propanamido)hexanamido)-1-oxohexan-2-yl)amino)-3-oxopropyl)-2-((S)-2-((S)-2-(3-(4-(2-benzylphenoxy)piperidin-1-yl)propanamido)-3-methylbutanamido)-3-hydroxypropanamido)succinamide] ({Propanoyl(3-Pip(4-O-2-BnPh))}-VSN[βAla]K([Ahx-BODIPY(FL)])-NH2) gave a Kd of 5.25 µM and a pKD of 5.28 ± 0.06.

In test [1], `Cc1cc(C)n2c1C=C1C=CC(CCC(=O)NCCCCCC(=O)NCCCC[C@H](NC(=O)CCNC(=O)[C@H](C)NC(=O)[C@H](C)NC(=O)[C@H](Cc3ccccc3)NC(=O)CCN3CCC(Oc4ccccc4Cc4ccccc4)CC3)C(N)=O)=[N+]1[B-]2(F)F` [Compound 39e, N-((5S,8S,11S,18S)-5-Benzyl-1-(4-(2-benzylphenoxy)piperidin-1-yl)-18-carbamoyl-8,11-dimethyl-3,6,9,12,16-pentaoxo-4,7,10,13,17-pentaazadocosan-22-yl)-6-(3-(5,5-difluoro-7,9-dimethyl-5H-4λ^4,5λ^4-dipyrrolo[1,2-c:2’,1’-f][1,3,2]diazaborinin-3-yl)propanamido)hexanamide] ({Propanoyl(3-Pip(4-O-2-BnPh))}-FAA[βAla]K([Ahx-BODIPY(FL)])-NH2) had a Kd of 2.69 µM and a pKD of 5.57 ± 0.05.

Turning to `CC(C)[C@H](NC(=O)CCN1CCC(Oc2ccccc2Cc2ccccc2)CC1)C(=O)N[C@@H](CO)C(=O)N[C@@H](CC(N)=O)C(=O)N[C@@H](Cn1cc(COc2ccc(/C=C/C3=[N+]4C(=Cc5ccc(-c6cccs6)n5[B-]4(F)F)C=C3)cc2)nn1)C(N)=O` [Compound 22a, (S)-N1-((S)-1-Amino-3-(4-((4-((E)-2-(5,5-difluoro-7-(thiophen-2-yl)-5H-5λ^4,6λ^4-dipyrrolo[1,2-c:2’,1’-f][1,3,2]diazaborinin-3-yl)vinyl)phenoxy)methyl)-1H-1,2,3-triazol-1-yl)-1-oxopropan-2-yl)-2-((S)-2-((S)-2-(3-(4-(2-benzylphenoxy)piperidin-1-yl)propanamido)-3-methylbutanamido)-3-hydroxypropanamido)succinamide], in test [1], binding was put at a Kd of 0.028 µM and the pKD is 7.55 ± 0.07.

A word on the Ki: it is the dissociation constant of the complex between target and ligand, obtained from inhibition or displacement. Higher therefore signals a looser hold on the target. Broadly, the pKi is the negative decadic logarithm of the Ki, by convention in mol/L. Read a high pKi as a small Ki. In test [2], `C[C@H](NC(=O)[C@H](C)NC(=O)[C@H](CO)NC(=O)CCN1CCC(Oc2ccccc2Cc2ccccc2)CC1)C(=O)N[C@H](Cc1ccccc1)C(N)=O` [Compound 8f, (S)-N-((S)-1-(((S)-1-(((R)-1-Amino-1-oxo-3-phenylpropan-2-yl)amino)-1-oxopropan-2-yl)amino)-1-oxopropan-2-yl)-2-(3-(4-(2-benzylphenoxy)piperidin-1-yl)propanamido)-3-hydroxypropanamide] ({Propanoyl(3-Pip(4-O-2-BnPh))}-SAA[dF]-NH2) displayed a Ki of 0.407 µM and a pKi of 6.39 ± 0.15.

In test [2], `CC(C)[C@H](NC(=O)CCN1CCC(Oc2ccccc2Cc2ccccc2)CC1)C(=O)N[C@@H](CO)C(=O)N[C@@H](C)C(=O)N[C@H](Cc1ccccc1)C(N)=O` [Compound 9e, (S)-N-((S)-1-(((S)-1-(((R)-1-Amino-1-oxo-3-phenylpropan-2-yl)amino)-1-oxopropan-2-yl)amino)-3-hydroxy-1-oxo-propan-2-yl)-2-(3-(4-(2-benzylphenoxy)piperidin-1-yl)-propanamido)-3-methylbutanamide] ({Propanoyl(3-Pip(4-O-2-BnPh))}-VSA[dF]-NH2) displayed a Ki of 0.151 µM and a pKi of 6.82 ± 0.06.

Source of the values: publication PMC9234962, “Optimization of Peptide Linker-Based Fluorescent Ligands for the Histamine H1 Receptor” (Journal of Medicinal Chemistry, 2022).
